Measurements: US20240076742A1, “METHODS FOR IMPROVED CANCER TREATMENT” (CELLPHENOMICS GMBH, priority 2020, published 2024)
Converted amounts (≈) assume the structure as drawn.

Tested on: colorectal cancer tumor cells with the SMAD4^R361H mutation
Experiment: Cell viability (CellTiterGlo) of patient-derived colorectal tumor cells in Matrigel, SMAD4 R361H
Format: cell-based
Conditions: Homo sapiens, 96 h, SMAD4^R361H loss-of-function mutation, 4-day treatment, FIG. 4, read-out: trametinib concentration at which tumor cell viability decreases below the IC50
Protocol: The mean inhibitory concentration, further referred to as IC50, is the concentration of an inhibitor at which half-maximal inhibition is observed. […] For the experiment, the biological tumor samples were dissociated by incubation with TrypLE Express solution (ThermoFisher Scientific, Germany) and 1.5×10^3 cells per well were seeded in four replicates in Matrigel and overlaid with culture medium. After 3-day incubation at 37° C. in 5% CO2, medium was removed and fresh medium containing trametinib was added. Trametinib was tested in four 1:5 dilution concentrations. Following concentrations were tested: 0.1 μg/ml, 0.02 μg/ml, 0.004 μg/ml and 0.0008 μg/ml. Cells treated with DMSO were used as control while Matrigel only was used for background readout. Staurosporine was used as internal positive control. After 4-day treatment, cell viability was determined by CellTiterGlo® assay. Cell plating, treatment and testing were handled by Biomek FXP Liquid Handler (Beckman Coulter).

IC50: 6 ng/mL (≈ 9.75 nM)
Compound: CC(=O)Nc1cccc(-n2c(=O)n(C3CC3)c(=O)c3c(Nc4ccc(I)cc4F)n(C)c(=O)c(C)c32)c1 [trametinib, N-(3-{3-Cyclopropyl-5-[(2-fluor-4-iodphenyl)amino]-6,8-dimethyl-2,4,7-trioxo-3,4,6,7-tetrahydropyrido[4,3-d]pyrimidin-1(2H)-yl}phenyl)acetamid]
